The values below come from patent US10766903B2 (ALMAC DISCOVERY LIMITED, priority 2016, dated 2020).

Broadly, the IC50 is the concentration at which inhibition is half-maximal.

Read-outs that look alike come from different tables or passages of the source.

In this assay the target is USP7 (Homo sapiens (Human), UniProt Q93009). Description: USP7 fluorescence polarisation (FP) biochemical assay, ubiquitin-Lys-TAMRA substrate. Conditions: average of at least duplicate experiments. As for the experimental part:
Measurement of USP7 Inhibitory Activity
USP7 activity was monitored in a fluorescence polarisation (FP) homogeneous assay using the isopeptide ubiquitin-Lys-TAMRA substrate (U-558, Boston Biochem). Full-length USP7 was purchased from Boston Biochem (His6-USP7FL, E-519). Unless otherwise stated, all other reagents were purchased from Sigma-Aldrich. Enzymatic reactions were conducted in black flat-bottom polystyrene 384-well plates (Nunc) and 15 μL total volume. USP7 (2.5 nM, 5 μL) was incubated in assay buffer (50 mM HEPES (pH 7.2), 150 mM NaCl, 0.5 mM EDTA, 5 mM DTT, 0.05% BSA (w/v), 0.05% CHAPS) in the presence or absence of inhibitor (5 μl). Inhibitors were stored as 10 mM DMSO stocks in an inert environment (low humidity, dark, low oxygen, room temperature) using a Storage Pod System and serial dilutions were prepared in buffer just prior to the assay (from 200 to 0.1 μM, 8 dp curve). […] FP was measured every 15 min over a period of 1.5 h (within the linear range of the assay) using a Synergy 4 plate reader (BioTek) exciting at 530 nm and measuring the amount of parallel and perpendicular light at 575 nm. The FP signal was subsequently normalised to the control without compound present.
A general note: Fluorescence polarisation rises when a labelled molecule tumbles more slowly, as on binding a larger partner.

Where [1] appears, read: Table 4, biochemical assay, read-out: USP7 IC50.
The mark [2] stands for this setting: USP7 IC50, Table 4, biochemical assay.

USP7, sequence (Q93009 whole entry): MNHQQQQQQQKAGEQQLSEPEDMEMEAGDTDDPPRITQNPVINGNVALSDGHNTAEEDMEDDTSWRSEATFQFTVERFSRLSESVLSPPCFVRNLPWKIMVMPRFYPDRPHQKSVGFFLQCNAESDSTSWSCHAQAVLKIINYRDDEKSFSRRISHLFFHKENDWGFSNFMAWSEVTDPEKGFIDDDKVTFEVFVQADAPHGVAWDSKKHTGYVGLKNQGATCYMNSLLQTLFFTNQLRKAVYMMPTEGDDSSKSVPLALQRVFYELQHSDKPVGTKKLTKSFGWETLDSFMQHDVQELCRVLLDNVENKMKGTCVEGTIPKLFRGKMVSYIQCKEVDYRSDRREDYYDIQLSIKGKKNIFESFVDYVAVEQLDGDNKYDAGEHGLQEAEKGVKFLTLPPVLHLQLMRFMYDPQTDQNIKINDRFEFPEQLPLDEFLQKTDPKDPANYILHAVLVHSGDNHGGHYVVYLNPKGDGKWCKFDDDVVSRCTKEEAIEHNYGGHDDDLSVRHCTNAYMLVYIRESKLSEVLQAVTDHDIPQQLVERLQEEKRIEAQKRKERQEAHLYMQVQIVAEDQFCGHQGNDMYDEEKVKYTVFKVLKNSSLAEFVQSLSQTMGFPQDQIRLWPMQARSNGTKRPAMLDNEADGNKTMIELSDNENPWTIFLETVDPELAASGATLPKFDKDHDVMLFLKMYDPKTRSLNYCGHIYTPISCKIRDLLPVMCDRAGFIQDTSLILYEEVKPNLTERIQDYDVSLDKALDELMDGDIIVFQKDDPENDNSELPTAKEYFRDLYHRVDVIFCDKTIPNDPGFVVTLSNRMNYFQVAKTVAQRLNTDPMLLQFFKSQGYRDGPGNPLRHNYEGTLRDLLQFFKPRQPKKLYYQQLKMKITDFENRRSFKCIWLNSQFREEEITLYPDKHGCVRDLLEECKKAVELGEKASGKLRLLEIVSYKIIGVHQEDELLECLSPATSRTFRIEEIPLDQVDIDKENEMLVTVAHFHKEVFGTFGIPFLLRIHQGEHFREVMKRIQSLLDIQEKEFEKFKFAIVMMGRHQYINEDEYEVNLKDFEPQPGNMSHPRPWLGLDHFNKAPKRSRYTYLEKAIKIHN

For `C[C@H](CC(=O)N1CCC(O)(Cn2cnc(NC3(C)COC3)cc2=O)CC1)c1ccccc1` [Example 155, (R)-3-((4-hydroxy-1-(3-phenylbutanoyl)piperidin-4-yl)methyl)-6-((3-methyloxetan-3-yl)amino)pyrimidin-4(3H)-one], under setting [1], the IC50 was 1000 to 200000 nM. `Cn1nc2c(=O)n(CC3(O)CCN(C(=O)CC(C4CC4)C4CC4)CC3)cnc2c1-c1ccc(CN)cc1` [Example 127, 3-(4-(Aminomethyl)phenyl)-6-((1-(3,3-dicyclopropylpropanoyl)-4-hydroxypiperidin-4-yl)methyl)-2-methyl-2H-pyrazolo[4,3-d]pyrimidin-7(6H)-one]: the IC50 under setting [1] is less than 250 nM. On to `Cn1nc2c(=O)n(CC3(O)CCN(C(=O)C[C@H](c4ccccc4)C(F)(F)F)CC3)cnc2c1C1CCCCC1` [Example 136, (R)-3-Cyclohexyl-6-((4-hydroxy-1-(4,4,4-trifluoro-3-phenylbutanoyl)piperidin-4-yl)methyl)-2-methyl-2H-pyrazolo[4,3-d]pyrimidin-7(6H)-one], for which the IC50 under setting [2] was in the range of 250 to 999 nM. Turning to `CC1(C(=O)N2CCC(O)(Cn3cnc4c(cc(Cl)n4-c4cccc(-n5cc(C(F)(F)F)cn5)c4)c3=O)CC2)CC1` [Example 225, 6-Chloro-3-((4-hydroxy-1-(1-methylcyclopropanecarbonyl)piperidin-4-yl)methyl)-7-(3-(4-(trifluoromethyl)-1H-pyrazol-1-yl)phenyl)-3H-pyrrolo[2,3-d]pyrimidin-4(7H)-one], the IC50 under setting [1] was 1000 to 200000 nM. Regarding `C[C@H](CC(=O)N1CCC(O)(Cn2cnc3c(ncn3C)c2=O)CC1)c1ccccc1` [Example 15, (R)-1-((4-Hydroxy-1-(3-phenylbutanoyl)piperidin-4-yl)methyl)-9-methyl-1H-purin-6(9H)-one], the IC50 under setting [1] fell in the range of 1000 to 200000 nM. Consider `C[C@H](CC(=O)N1CCC(O)(Cn2cnc(NC3CCCC3)cc2=O)CC1)c1ccccc1` [Example 167, (R)-6-(cyclopentylamino)-3-((4-hydroxy-1-(3-phenylbutanoyl)piperidin-4-yl)methyl)pyrimidin-4(3H)-one], for which the IC50 under setting [2] was 250 to 999 nM. As to `C[C@H](CC(=O)N1CCC(O)(Cc2cnc3ccccn3c2=O)CC1)c1ccccc1` [Example 18, (R)-3-((4-Hydroxy-1-(3-phenylbutanoyl)piperidin-4-yl)methyl)-4H-pyrido[1,2-a]pyrimidin-4-one], under setting [1], the IC50 fell in the range of 1000 to 200000 nM. With `C[C@H](CC(=O)N1CCC(O)(Cn2cnc(N3CC4(CCC4(F)F)C3)cc2=O)CC1)c1ccccc1` [Example 173, (R)-6-(5,5-difluoro-2-azaspiro[3.3]heptan-2-yl)-3-((4-hydroxy-1-(3-phenylbutanoyl)piperidin-4-yl)methyl)pyrimidin-4(3H)-one], the IC50 under setting [1] lay in the range of 1000 to 200000 nM.

Turning to `Cn1nc2c(=O)n(CC3(O)CCN(C(=O)CC(C4CC4)C4CC4)CC3)cnc2c1-c1ccccc1` [Example 193, 6-((1-(3,3-Dicyclopropylpropanoyl)-4-hydroxypiperidin-4-yl)methyl)-2-methyl-3-phenyl-2H-pyrazolo[4,3-d]pyrimidin-7(6H)-one], under setting [1], the IC50 is 250 to 999 nM. With `C[C@H](CC(=O)N1CCC(O)(Cn2cnc(N3CCOCC3)cc2=O)CC1)c1ccccc1` [Example 100, (R)-3-((4-Hydroxy-1-(3-phenylbutanoyl)piperidin-4-yl)methyl)-6-morpholinopyrimidin-4(3H)-one], under setting [1], the IC50 fell in the range of 1000 to 200000 nM. On to `CC(C)NCCNc1cc(=O)n(CC2(O)CCN(C(=O)C[C@@H](C)c3ccccc3)CC2)cn1` [Example 142, (R)-3-((4-hydroxy-1-(3-phenylbutanoyl)piperidin-4-yl)methyl)-6-((2-(isopropylamino)ethyl)amino)pyrimidin-4(3H)-one], for which the IC50 under setting [2] lay in the range of 250 to 999 nM.

Take `Cn1nc2c(=O)n(CC3(O)CCN(C(=O)C[C@H](c4ccccc4)C(F)(F)F)CC3)cnc2c1C1=CCCCC1` [Example 134, (R)-3-(Cyclohex-1-en-1-yl)-6-((4-hydroxy-1-(4,4,4-trifluoro-3-phenylbutanoyl)piperidin-4-yl)methyl)-2-methyl-2H-pyrazolo[4,3-d]pyrimidin-7(6H)-one]: the IC50 under setting [1] was less than 250 nM. Turning to `C[C@H](CC(=O)N1CCC(O)(Cn2cnc(N3CCN(Cc4cccnc4)CC3)cc2=O)CC1)c1ccccc1` [Example 158, (R)-3-((4-hydroxy-1-(3-phenylbutanoyl)piperidin-4-yl)methyl)-6-(4-(pyridin-3-ylmethyl)piperazin-1-yl)pyrimidin-4(3H)-one], the IC50 under setting [1] was in the range of 1000 to 200000 nM. Take `C[C@H](CC(=O)N1CCC(O)(Cn2cnc3c(Nc4ccccc4)n(C)nc3c2=O)CC1)c1ccccc1` [Example 43, (R)-6-((4-Hydroxy-1-(3-phenylbutanoyl)piperidin-4-yl)methyl)-2-methyl-3-(phenylamino)-2H-pyrazolo[4,3-d]pyrimidin-7(6H)-one]: under setting [1], the IC50 was 1000 to 200000 nM.

On to `C[C@H](CC(=O)N1CCC(O)(Cn2cnc(N3CC4(CCCN4C)C3)cc2=O)CC1)c1ccccc1` [Example 178, (R)-3-((4-hydroxy-1-(3-phenylbutanoyl)piperidin-4-yl)methyl)-6-(5-methyl-2,5-diazaspiro[3.4]octan-2-yl)pyrimidin-4(3H)-one], for which, under setting [2], the IC50 lay in the range of 250 to 999 nM. Regarding `CC1(C(=O)N2CCC(O)(Cn3cnc4c(cc(Cl)n4-c4ccc(CN)cc4)c3=O)CC2)CC1` [Example 241, 7-(4-(Aminomethyl)phenyl)-6-chloro-3-((4-hydroxy-1-(1-methylcyclopropane-1-carbonyl)piperidin-4-yl)methyl)-3,7-dihydro-4H-pyrrolo[2,3-d]pyrimidin-4-one], under setting [1], the IC50 is less than 250 nM.

Take `COC[C@H]1CCCN1CCNc1cc(=O)n(CC2(O)CCN(C(=O)C[C@@H](C)c3ccccc3)CC2)cn1` [Example 70, 3-((4-Hydroxy-1-((R)-3-phenylbutanoyl)piperidin-4-yl)methyl)-6-((2-((R)-2-(methoxymethyl)pyrrolidin-1-yl)ethyl)amino)pyrimidin-4(3H)-one]: under setting [1], the IC50 is 1000 to 200000 nM. Turning to `Cn1nccc1-c1cc(-n2c(Cl)cc3c(=O)n(CC4(O)CCN(C(=O)c5cnc(C6CC6)o5)CC4)cnc32)ccc1F` [Example 230, 6-Chloro-3-((1-(2-cyclopropyloxazole-5-carbonyl)-4-hydroxypiperidin-4-yl)methyl)-7-(4-fluoro-3-(1-methyl-1H-pyrazol-5-yl)phenyl)-3H-pyrrolo[2,3-d]pyrimidin-4(7H)-one], the IC50 under setting [1] fell in the range of 250 to 999 nM. Same read-out and setting: then `COc1cc(-n2c(Cl)cc3c(=O)n(CC4(O)CCN(C(=O)C5(C)CC5)CC4)cnc32)ccc1F` [Example 207, 6-Chloro-7-(4-fluoro-3-methoxyphenyl)-3-((4-hydroxy-1-(1-methylcyclopropanecarbonyl)piperidin-4-yl)methyl)-3H-pyrrolo[2,3-d]pyrimidin-4(7H)-one], with 250 to 999 nM.

Regarding `Cc1c(NCCN2CCCC2)ncn(CC2(O)CCN(C(=O)C[C@@H](C)c3ccccc3)CC2)c1=O` [Example 111, (R)-3-((4-Hydroxy-1-(3-phenylbutanoyl)piperidin-4-yl)methyl)-5-methyl-6-((2-(pyrrolidin-1-yl)ethyl)amino)pyrimidin-4(3H)-one], the IC50 under setting [1] was in the range of 1000 to 200000 nM. As for `CC(=O)N1CC2(C1)CN(c1cc(=O)n(CC3(O)CCN(C(=O)C[C@@H](C)c4ccccc4)CC3)cn1)C2` [Example 172, (R)-6-(6-acetyl-2,6-diazaspiro[3.3]heptan-2-yl)-3-((4-hydroxy-1-(3-phenylbutanoyl)piperidin-4-yl)methyl)pyrimidin-4(3H)-one], under setting [2], the IC50 lay in the range of 250 to 999 nM. Regarding `COc1cc(=O)n(CC2(O)CCN(C(=O)C[C@@H](C)c3ccccc3)CC2)cn1` [Example 9, (R)-3-((4-Hydroxy-1-(3-phenylbutanoyl)piperidin-4-yl)methyl)-6-methoxypyrimidin-4(3H)-one], under setting [1], the IC50 was in the range of 1000 to 200000 nM. Still for that read-out and setting: next, `O=C(c1cnc(C2CC2)o1)N1CCC(O)(Cn2cnc3c(cc(I)n3-c3ccccc3)c2=O)CC1` [Example 224, 3-((1-(2-Cyclopropyloxazole-5-carbonyl)-4-hydroxypiperidin-4-yl)methyl)-6-iodo-7-phenyl-3H-pyrrolo[2,3-d]pyrimidin-4(7H)-one]: less than 250 nM. As to `Cn1nc2c(=O)n(CC3(O)CCN(C(=O)c4cnc(C5CC5)o4)CC3)cnc2c1-c1ccccc1` [Example 196, 6-((1-(2-Cyclopropyloxazole-5-carbonyl)-4-hydroxypiperidin-4-yl)methyl)-2-methyl-3-phenyl-2H-pyrazolo[4,3-d]pyrimidin-7(6H)-one], under setting [1], the IC50 is 1000 to 200000 nM.

Regarding `C[C@H](CC(=O)N1CCC(O)(Cn2cnc(N[C@@H](C)CN3CCCC3)cc2=O)CC1)c1ccccc1` [Example 61, 3-((4-Hydroxy-1-((R)-3-phenylbutanoyl)piperidin-4-yl)methyl)-6-(((S)-1-(pyrrolidin-1-yl)propan-2-yl)amino)pyrimidin-4(3H)-one, Formic Acid], the IC50 under setting [2] is 250 to 999 nM. In the case of `C[C@H](CC(=O)N1CCC(O)(Cc2cnc3c(-c4ccccc4)cccn3c2=O)CC1)c1ccccc1` [Example 19, (R)-3-((4-Hydroxy-1-(3-phenylbutanoyl)piperidin-4-yl)methyl)-9-phenyl-4H-pyrido[1,2-a]pyrimidin-4-one], the IC50 under setting [1] lay within 1000 to 200000 nM.

Take `O=C(c1cnc(C2CC2)o1)N1CCC(O)(Cn2cnc3c(cc(Cl)n3-c3ccc(F)cc3)c2=O)CC1` [Example 205, 6-Chloro-3-((1-(2-cyclopropyloxazole-5-carbonyl)-4-hydroxypiperidin-4-yl)methyl)-7-(4-fluorophenyl)-3H-pyrrolo[2,3-d]pyrimidin-4(7H)-one]: the IC50 under setting [1] was less than 250 nM.
